This is an account of results in article PMC7681098 (Theranostics, 2021).

Series [1] concerns the target T1, c-Src (Homo sapiens, UniProt P12931).
T1 construct: purchased Reaction Biology Corporation (PA, USA)
Kind of series: Kinase inhibition assay (Reaction Biology). The format is biochemical.

For series [2], the target named is FLT3 (ITD) (Homo sapiens, UniProt P36888, ITD). The experiment in a line: biochemical.
Series [3] concerns FLT3. Kind of series: PD study in subcutaneous MV4-11 xenograft mice. In kind it is in vivo, BALB/c nude mice. To be noted: single dose 10 mg/kg intravenous. The method, then:
An MV4-11 cell tumor model was established by subcutaneous injection. Six-week-old female BALB/c nude mice were used for the subcutaneous model. […] Mice were sacrificed and tumor tissues were freshly dissected, homogenized, and centrifuged at 16000 g for 20 min. The phosphorylation levels of FLT3 were measured by Western blot.
(§1) Blue square and solid line represent intravenous injection administration. […] Mice were sacrificed at indicated time points and then tumor tissues were dissected and lysed. Phosphorylation levels of FLT3, STAT5 and ERK1/2 were measured by western blotting. (C) Bone marrow mononuclear cells (BMMCs) were isolated from healthy C57BL/6 mice. […] Apoptosis assays were conducted after 36-hour incubation. […] 24 h after the last administration, c-Kit^+ cells were evaluated by flow cytometry. […] Data were shown with mean±SD.

Series [4] has as its target T2, ERK1 (Homo sapiens, UniProt P27361).
T2 construct: purchased Reaction Biology Corporation (PA, USA)
The experiment in a line: Kinase inhibition assay (Reaction Biology). The format is biochemical.

The subject of series [5] is MV4-11 cells. The experiment in a line: Bone marrow engrafted model, survival. In kind it is in vivo, NOD-SCID mice. The settings on record: MV4-11 bone marrow engraftment; LT-171-861 10 mg/kg every other day, sorafenib orally every day. The method, then:
Six-week-old female NOD-SCID mice were treated with sub-lethal dose radiation (1.8 Gy) before intravenous injection of MV4-11 cells (5×10^6) or MOLM13 cells (5×10^6).
Data were shown as mean±SD. […] Data were shown as mean±SD. (C) An engrafted tumor model was used to evaluate in vivo antitumor activity. The NOD/SCID mice were intravenously inoculated with MV4-11 cells. […] Log-rank testing was used to compare survival curves among treatment groups. […] (D) Apoptotic assays in engraft model were evaluated by TUNEL assay and cell proliferative activity was measured by Ki67 assay. Images were acquired at ×40 magnification. (E) BALB/c nude mice were subcutaneously inoculated with MV4-11 cells (5×10^6) and bodyweight of each mouse was recorded every other day. (F) Representative photo of tumors from BALB/c nude mice which were inoculated with MV4-11 cells. (G) BALB/c nude mice were subcutaneously inoculated with BaF3 cells bearing FLT3-ITD-N676D (n=6) and FLT3-ITD-F691L (n=6) respectively. […] (H) BALB/c mice were intravenously inoculated with cells used in (G). […] Log-rank testing was used to compare survival curves among treatment groups. […] (I) Representative photos of spleens dissected from mice in (H) inoculated with BaF3 cells bearing FLT-3-ITD-F691L.
Mice that received vehicle treatment died within 30 days after intravenous injection of MV4-11 cells.

Series [6] deals with T3, FLT1/VEGFR1 (Homo sapiens, UniProt P17948).
T3 construct: purchased Reaction Biology Corporation (PA, USA)
T3 sequence (P17948 27-1338): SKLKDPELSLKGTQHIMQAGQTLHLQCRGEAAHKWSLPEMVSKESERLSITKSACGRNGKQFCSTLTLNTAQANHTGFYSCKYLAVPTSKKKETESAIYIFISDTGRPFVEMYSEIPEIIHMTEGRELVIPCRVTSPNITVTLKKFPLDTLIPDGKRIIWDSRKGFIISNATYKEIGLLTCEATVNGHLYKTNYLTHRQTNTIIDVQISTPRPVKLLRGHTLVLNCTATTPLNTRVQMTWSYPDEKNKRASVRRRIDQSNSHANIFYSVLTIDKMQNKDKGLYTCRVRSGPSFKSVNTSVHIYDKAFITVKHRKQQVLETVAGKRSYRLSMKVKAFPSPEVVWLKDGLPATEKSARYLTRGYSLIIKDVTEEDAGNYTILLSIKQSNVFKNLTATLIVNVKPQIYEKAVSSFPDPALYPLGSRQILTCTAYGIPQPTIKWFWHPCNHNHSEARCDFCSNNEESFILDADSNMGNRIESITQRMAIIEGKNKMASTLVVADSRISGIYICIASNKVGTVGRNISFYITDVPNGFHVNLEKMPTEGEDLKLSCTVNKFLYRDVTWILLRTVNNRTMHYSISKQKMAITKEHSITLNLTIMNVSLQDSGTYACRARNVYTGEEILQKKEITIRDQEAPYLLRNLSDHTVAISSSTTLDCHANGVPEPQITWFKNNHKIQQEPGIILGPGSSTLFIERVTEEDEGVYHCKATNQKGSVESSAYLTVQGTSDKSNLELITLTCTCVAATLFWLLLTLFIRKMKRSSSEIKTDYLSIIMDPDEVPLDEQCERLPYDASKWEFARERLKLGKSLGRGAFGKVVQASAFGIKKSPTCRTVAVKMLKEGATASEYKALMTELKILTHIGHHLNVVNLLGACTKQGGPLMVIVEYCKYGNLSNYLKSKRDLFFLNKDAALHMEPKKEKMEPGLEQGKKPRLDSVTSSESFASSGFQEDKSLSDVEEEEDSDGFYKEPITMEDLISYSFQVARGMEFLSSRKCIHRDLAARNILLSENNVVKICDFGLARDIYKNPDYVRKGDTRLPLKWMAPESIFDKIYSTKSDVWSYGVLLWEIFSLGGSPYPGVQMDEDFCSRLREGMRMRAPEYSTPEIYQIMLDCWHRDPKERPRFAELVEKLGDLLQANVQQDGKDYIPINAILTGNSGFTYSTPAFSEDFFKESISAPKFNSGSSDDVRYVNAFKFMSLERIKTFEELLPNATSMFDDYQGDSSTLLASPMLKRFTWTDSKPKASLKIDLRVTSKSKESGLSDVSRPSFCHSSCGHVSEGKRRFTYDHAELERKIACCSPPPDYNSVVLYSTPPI
Kind of series: Kinase inhibition assay (Reaction Biology). In kind it is biochemical.

The target in series [7] is T4, c-Kit (Homo sapiens, UniProt P10721).
T4 construct: purchased Reaction Biology Corporation (PA, USA)
T4 sequence (P10721 26-976): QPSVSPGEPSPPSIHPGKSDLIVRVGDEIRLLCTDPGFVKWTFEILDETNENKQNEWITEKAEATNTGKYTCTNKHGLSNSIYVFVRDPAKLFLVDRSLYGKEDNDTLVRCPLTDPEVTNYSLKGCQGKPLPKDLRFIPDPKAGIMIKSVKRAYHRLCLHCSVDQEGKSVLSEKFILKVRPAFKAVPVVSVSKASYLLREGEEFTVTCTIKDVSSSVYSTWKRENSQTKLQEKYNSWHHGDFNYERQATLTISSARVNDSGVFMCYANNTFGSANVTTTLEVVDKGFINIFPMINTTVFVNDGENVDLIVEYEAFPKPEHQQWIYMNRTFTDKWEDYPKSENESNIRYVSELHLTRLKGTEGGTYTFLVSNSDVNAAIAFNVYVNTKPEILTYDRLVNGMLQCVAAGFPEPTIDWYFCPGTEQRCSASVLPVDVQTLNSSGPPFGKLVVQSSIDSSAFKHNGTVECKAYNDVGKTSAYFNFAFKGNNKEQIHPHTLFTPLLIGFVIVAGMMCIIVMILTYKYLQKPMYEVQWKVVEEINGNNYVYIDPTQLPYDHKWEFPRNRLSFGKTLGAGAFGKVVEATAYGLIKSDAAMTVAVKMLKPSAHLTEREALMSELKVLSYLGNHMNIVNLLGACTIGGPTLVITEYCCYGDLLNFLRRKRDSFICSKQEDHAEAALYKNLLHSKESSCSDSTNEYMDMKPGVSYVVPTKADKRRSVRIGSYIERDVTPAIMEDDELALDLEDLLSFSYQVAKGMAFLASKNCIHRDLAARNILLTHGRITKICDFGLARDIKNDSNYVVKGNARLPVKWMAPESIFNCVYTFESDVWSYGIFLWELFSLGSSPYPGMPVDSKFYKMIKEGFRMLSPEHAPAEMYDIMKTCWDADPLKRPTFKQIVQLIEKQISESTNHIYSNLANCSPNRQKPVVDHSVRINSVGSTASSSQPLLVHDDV
Kind of series: Kinase inhibition assay (Reaction Biology). In kind it is biochemical.

In series [8] the test system is bone marrow mononuclear cells (BMMCs). Kind of series: Apoptosis assay in normal bone marrow mononuclear cells. The format is cell-based, C57BL/6 mice. The settings on record: 36 h. The method, then: as §1
Then, we evaluated progenitor cell (c-Kit^+) lineages of bone marrow cells (Figure 4D), spleen or liver weights (Figure S2A), relative body weights (Figure S2B), and parameters of blood routine examination (Figure S2C).

Series [9] deals with MOLM13 cells. The experiment in a line: Stroma-protecting model: proliferation in HS-5 conditional medium or normal medium. In kind it is cell-based. The settings on record: Homo sapiens, MOLM-13, 72 h, MTT. On the procedure: At the indicated time point, cell viability was evaluated by MTT assay.
(A) Indicated FLT3 mutations were expressed in BaF3 cells respectively. […] The autophosphorylation level of FLT3 was visualized and compared by western blot analysis. […] The CM was prepared from HS-5 cell culture for 4 days under routine culture conditions, clarified by centrifugation, and used immediately. The CM was added to complete medium at a final concentration of 40%. Cell viabilities were measured by MTT assay. Data were shown as mean±SD. […] The FLT3 phosphorylation levels of FLT3, STAT5 and ERK 1/2 were determined by Western blot.
On the other hand, the bone marrow stroma-protecting environment containing a number of cytokines (e.g. FLT3 ligand, stromal derived factor-1, etc) could also decrease the drug efficacy of FLT3 inhibitors by activating FLT3 or its downstream effectors and building cross-talk between leukemic blasts and bone marrow microenvironment, [35].

The target in series [10] is T5, FLT3 (Homo sapiens, UniProt P36888).
T5 construct: The intracellular domain of FLT3 (residues 571-994) was cloned into pMal-c2X; MBP (N); made in house; host or cells: E. coli BL21
The experiment in a line: Biolayer interferometry (BLI) binding assay. To be noted: ForteBio Octet, 0.3 nM to 1000 nM. On the procedure: The intracellular domain of FLT3 (residues 571-994) was cloned into pMal-c2X containing an N-terminal MBP-tag with a TEV protease cleavage site. The recombinant vector was transformed into E. coli. BL21. Expression and purification of recombinant FLT3 were performed as described previously [25]-[27].
All studies were performed with the Super Streptavidin (SSA) biosensors (CA, USA). All binding experiments were performed according to the manufacturer's instructions. For the cellular thermal shift assay (CETSA), experiments were performed as described previously.
A concentration range from 0.3 nM to 1000 nM was defined (Figure 1B). […] CETSA has been used to identify FLT3-LT-171-861 interactions in live cell settings. […] We first verified that the inhibitor could stabilize FLT3 against denaturation using Western blot. […] An obvious thermal shift of the melting curve was detected in the LT-171-861-treated sample (Figure 1C). […] Accordingly, we identified 53 °C as the optimal temperature for isothermal […] fingerprint (ITDRF) CETSA.
(A) Chemical structure of LT-171-861. […] Data were then fitted to obtain KD value. […] Data were first normalized by setting the highest and lowest value in each set to 100% and 0% respectively. […] Cell viability was evaluated by MTT assay respectively. The IC50 values were calculated using nonlinear regression.
In general terms: BLI is a label-free optical method that tracks binding on a fibre tip over time.

Series [11] has as its target T6, JAK1 (Homo sapiens, UniProt P23458).
T6 construct: purchased Reaction Biology Corporation (PA, USA)
Kind of series: Kinase inhibition assay (Reaction Biology). The format is biochemical.

Like-named read-outs stand apart in the source and are kept apart here.

T2 sequence (P27361 whole entry): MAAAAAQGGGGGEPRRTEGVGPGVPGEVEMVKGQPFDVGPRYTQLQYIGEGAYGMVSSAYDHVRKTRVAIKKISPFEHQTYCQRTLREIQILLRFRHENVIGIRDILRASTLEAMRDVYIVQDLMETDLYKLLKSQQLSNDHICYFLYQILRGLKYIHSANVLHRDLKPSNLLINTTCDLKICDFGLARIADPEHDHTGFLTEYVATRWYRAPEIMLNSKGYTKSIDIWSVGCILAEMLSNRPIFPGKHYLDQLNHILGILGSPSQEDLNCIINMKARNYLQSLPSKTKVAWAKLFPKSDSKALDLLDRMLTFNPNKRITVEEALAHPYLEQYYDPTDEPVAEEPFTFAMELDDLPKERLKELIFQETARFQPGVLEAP
Chain of FLT3 (ITD) (P36888 564-993, change not shown): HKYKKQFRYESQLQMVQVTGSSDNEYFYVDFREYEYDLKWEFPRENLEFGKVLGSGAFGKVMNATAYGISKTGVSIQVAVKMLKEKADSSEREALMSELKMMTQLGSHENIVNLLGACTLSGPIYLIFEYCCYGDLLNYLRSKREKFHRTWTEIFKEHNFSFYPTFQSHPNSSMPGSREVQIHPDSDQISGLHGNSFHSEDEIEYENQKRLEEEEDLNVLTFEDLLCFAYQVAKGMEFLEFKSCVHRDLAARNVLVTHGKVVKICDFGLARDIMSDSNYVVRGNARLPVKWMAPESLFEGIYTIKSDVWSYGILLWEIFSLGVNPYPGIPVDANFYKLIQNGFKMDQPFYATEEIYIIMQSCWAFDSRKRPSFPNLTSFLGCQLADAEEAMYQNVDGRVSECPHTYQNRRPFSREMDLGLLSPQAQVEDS
T6 sequence (P23458 whole entry): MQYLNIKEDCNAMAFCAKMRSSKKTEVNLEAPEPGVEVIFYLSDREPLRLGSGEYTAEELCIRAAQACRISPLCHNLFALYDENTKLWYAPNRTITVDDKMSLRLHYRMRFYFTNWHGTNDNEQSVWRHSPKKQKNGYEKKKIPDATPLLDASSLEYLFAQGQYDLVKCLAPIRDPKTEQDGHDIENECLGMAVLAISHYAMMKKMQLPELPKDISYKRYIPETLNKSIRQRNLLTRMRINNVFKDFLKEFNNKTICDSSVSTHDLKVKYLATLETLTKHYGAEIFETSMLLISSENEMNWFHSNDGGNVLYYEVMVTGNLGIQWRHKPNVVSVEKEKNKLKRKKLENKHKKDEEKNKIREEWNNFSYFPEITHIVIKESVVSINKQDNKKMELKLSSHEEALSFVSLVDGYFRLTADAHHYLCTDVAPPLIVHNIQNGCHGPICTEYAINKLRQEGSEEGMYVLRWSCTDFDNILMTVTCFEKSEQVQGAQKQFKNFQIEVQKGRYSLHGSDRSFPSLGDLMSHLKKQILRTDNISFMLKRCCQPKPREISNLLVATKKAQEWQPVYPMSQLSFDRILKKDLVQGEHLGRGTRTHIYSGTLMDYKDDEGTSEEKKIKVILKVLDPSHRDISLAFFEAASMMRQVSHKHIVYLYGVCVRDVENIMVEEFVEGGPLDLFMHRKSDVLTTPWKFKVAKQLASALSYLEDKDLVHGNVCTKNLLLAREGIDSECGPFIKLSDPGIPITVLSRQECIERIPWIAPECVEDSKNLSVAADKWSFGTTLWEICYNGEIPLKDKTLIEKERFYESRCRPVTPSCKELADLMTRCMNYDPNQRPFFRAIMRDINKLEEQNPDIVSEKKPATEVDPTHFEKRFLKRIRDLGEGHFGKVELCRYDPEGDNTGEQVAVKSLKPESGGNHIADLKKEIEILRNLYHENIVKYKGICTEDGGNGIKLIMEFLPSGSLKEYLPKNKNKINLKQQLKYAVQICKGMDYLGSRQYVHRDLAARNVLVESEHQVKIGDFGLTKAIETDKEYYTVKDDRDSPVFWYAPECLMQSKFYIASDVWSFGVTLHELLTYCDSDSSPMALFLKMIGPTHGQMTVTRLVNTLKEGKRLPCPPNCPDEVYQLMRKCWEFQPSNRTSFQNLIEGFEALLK
T1 sequence (P12931 whole entry): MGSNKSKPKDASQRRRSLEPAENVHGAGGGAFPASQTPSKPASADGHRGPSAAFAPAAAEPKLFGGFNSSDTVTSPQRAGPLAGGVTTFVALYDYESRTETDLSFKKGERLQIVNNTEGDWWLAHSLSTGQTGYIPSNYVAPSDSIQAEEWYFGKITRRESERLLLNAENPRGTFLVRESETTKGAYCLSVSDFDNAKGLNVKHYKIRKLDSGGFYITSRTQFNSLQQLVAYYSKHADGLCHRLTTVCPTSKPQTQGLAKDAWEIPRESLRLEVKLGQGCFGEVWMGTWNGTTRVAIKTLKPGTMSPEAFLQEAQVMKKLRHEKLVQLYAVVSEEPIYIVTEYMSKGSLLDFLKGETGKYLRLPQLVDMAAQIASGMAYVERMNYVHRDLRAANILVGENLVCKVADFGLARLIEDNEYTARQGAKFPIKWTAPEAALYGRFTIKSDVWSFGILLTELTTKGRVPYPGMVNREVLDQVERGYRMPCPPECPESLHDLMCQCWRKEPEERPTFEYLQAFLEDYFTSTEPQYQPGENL

The term Kd denotes the constant that tells how readily two partners part at equilibrium. With `CN1CCN(Cc2ccc(NC(=O)c3n[nH]cc3Nc3ncnc4[nH]ccc34)cc2)CC1` [LT-171-861], the IC50 in series [1] is 0.072 µM; in series [2] it was < 0.001 µM; in series [2] (10 μM ATP, 10-dose IC50 mode), 0.000718 µM; in series [4], > 0.2 µM; in series [4] (10 μM ATP, 10-dose IC50 mode) it was 1.06 µM; in series [6], 0.0056 µM. Also, the IC50 in [7] was > 0.2 µM; in series [7] (10 μM ATP, 10-dose IC50 mode), 1.81 µM; in [9] (HS-5 conditional medium (CM) 40%, read-out: IC50 proliferation of MOLM13 cells in CM), 0.0247 µM; in series [9] (normal medium (NM), read-out: IC50 proliferation of MOLM13 cells in NM), 0.0199 µM; in series [11] it was 0.055 µM. In addition, in [3], the “duration of inhibition of FLT3 autophosphorylation and downstream effectors” value came out at 24 h. For the same compound, in series [3] (western blot), the “inhibition of p-FLT3, p-STAT5 and p-ERK1/2 in tumor” value was “sustained inhibition”. The survival versus vehicle result in series [5] is reported as “increased survival rates”. Also, the “toxicity in normal BMMCs” value in series [8] is given as “hypotoxicity”. Besides, the Kd in [10] came to 0.00331 µM.
